The test system of this test is SAM-MYOC mice. Briefly: Intraocular pressure (IOP) in SAM-MYOC mice. To be noted: SAM-MYOC mice approximately 10 weeks after AAV2.Y3F-SAM-g4; one drop per eye; IOP at 2, 4, 6, and 24 hours. It counts as in vivo, mouse. Here is the method:
To validate the SAM mice comprising a humanized MYOC locus comprising a Y437H mutation (SAM-MYOC mice), SAM-MYOC mice homozygous or heterozygous for the humanized MYOC locus were treated with AAV2.Y3F-SAM-g4, AAV2.Y3F-SAM-g5, an AAV2.Y3F-SAM-LacZ control, or nothing (naïve). […] This validated the SAM-MYOC mice as a suitable MYOC disease model with increased IOP.
IOP-lowering drugs used to treat glaucoma patients were then tested as a proof-of-concept to determine if they could lower the IOP observed in the SAM-MYOC mice following treatment with SAM-g4. We tested two IOP-lowering drugs: (1) timolol (a beta blocker that suppresses aqueous humor formation); and (2) RHOPRESSA® (a ROCK inhibitor that increases outflow of aqueous humor). […] At 0 hours, the IOP was measured, and each eye received one drop of either timolol or RHOPRESSA®, and IOP was measured at 2, 4, 6, and 24 hours after treatment.
An siRNA targeting human MYOC was then tested to determine if it could lower the high IOP observed in the SAM-MYOC mice following treatment with SAM-g4. SAM-g4 was administered via intracameral (IC) injection at day 0, and baseline IOP was measured. IOP was then measured over the following five weeks. At week five, MYOC siRNA #1 (1 μL, 15 μg dose) was administered via intravitreal (IVT) injection, and IOP was measured at various timepoints over the subsequent weeks. […]

Molecules are shown by their SMILES.

`CC(C)(C)NC[C@H](O)COc1nsnc1N1CCOCC1` [timolol]: the “IOP after IOP-lowering drug” value is given as “effective at lowering IOP”.

Values taken from US12582104B2, “Mutant myocilin disease model and uses thereof” (Regeneron Pharmaceuticals, Inc., priority 2021, dated 2026).
